From patent publication US9867862B2, “Compounds and method for treating or preventing disease conditions associated with alpha-1-antitrypsin” (AMICUS THERAPEUTICS, INC., priority 2010, dated 2018)
Values belong to the molecule of their own block, whether it stands above or below them. Peptide text beside a SMILES is read from it.

Legend:
ZAT [1] = target: T1, ZAT (Homo sapiens, UniProt P01009, E366K); conditions: background studies; cited from earlier work
ZAT [2] = target: T1, ZAT; test: In vitro polymerization assay (native gel, western blot); type: biochemical; conditions: FIG. 3 western blot; peptides at 1 mM with Z-AT, 4 hours 37° C. then 30 minutes 62° C.; versus control (no peptide)
Experimental: An in vitro polymerization assay was employed to screen the ability of a pharmacological chaperone to inhibit polymerization. […] In brief, M-AT or Z-AT was incubated at 37° C. for 4 hours, followed by 30 minutes at 62° C. The samples were then run on a Bis-Tris native gel and either blotted onto PVDF or detected with colloidal blue staining. Peptides at 1 mM were incubated with equal amounts (50 ng) of Z-AT for 4 hours at 37° C., followed by a 62° C. pulse for 30 minutes. Samples were separated on a 4-12% Bis-Tris native gel, blotted onto PVDF and the blot probed with a human specific antibody for alpha-1-antitrypsin. Additionally, in the case of samples from human plasma, a western blot was performed to assess the level of alpha-1-antitrypsin. polymerization. The inducible HeLa cell line retains Z-AT intracellularly as little Z-AT can be detected in the media. The Z-AT contained in lysates is apparently not processed to complex N-glycans as the molecular weight is slightly lower than M-AT purified from plasma, which is consistent with the findings of others. The intracellular material is endo H sensitive indicative of high mannose N-linked glycans.

alpha-1-antitrypsin = alpha-1-antitrypsin (Homo sapiens, UniProt P01009, E366K); test: Alpha-1-antitrypsin elastase inhibition assay; type: biochemical
Excerpt: An elastase inhibition assay was developed to measure the effects of a test compound on the inhibitory activity of secreted Z-AT. In one embodiment, to detect elastase activity, bovine elastin was labeled with BODIPY, which causes the fluorescence of the conjugate to be quenched. This non-fluorescent substrate was digested by elastase to yield highly fluorescent fragments. Alternatively, the non-fluorescent substrate may be digested by another protease to yield fluorescent fragments. The activity of α-1-antitrypsin was monitored by measuring a decrease in fluorescent signal, indicative of the elastase inhibitory activity of α-1-antitrypsin. […] In one embodiment, the resulting fluorescence was monitored in a Perkin Elmer Victor V plate reader using absorption and emission filters for fluorescein […].
Additional cell lines to screen for pharmacologic chaperones and to identify surrogate markers of Z-AT expression were developed using an inducible promoter system. The inducible systems are useful for determining if particular chaperones need to be present prior to Z-AT translation in the endoplasmic reticulum to induce secretion of Z-AT and/or inhibit […]

ZAT [3] = target: T1, ZAT; test: Western blot of intracellular ZAT in ZAT inducible CHO cells; type: cell-based; design: expressed in transfected cells; host or cells: inducible serum-free CHO cells (tetracycline repressor control); conditions: for intracellular levels of ZAT, normalized densitometry: FIG. 14 graph
Experimental: Serum Free CHO and HeLa cells in which expression of Z-AT is under control of the tetracycline repressor were grown to confluence. To analyze the intra- and extracellular production of Z-AT, media was collected and cells were lysed in non-ionic detergent. Media and lysates were analyzed on a NuPAGE SDS gel followed by western blotting utilizing a human specific sheep anti-human alpha-1-antitrypsin polyclonal antibody.
Furthermore, two compounds, compounds V and VI, decrease intracellular levels of ZAT. These compounds are shown in Table 2, along with structural data for each compound. […] The levels of intracellular levels of ZAT are even lower when treated at the higher concentration. […] FIG. 13 depicts a western blot of intracellular levels of ZAT after 1mM treatment. […] FIG. 14 is a graph of showing intracellular levels of ZAT after 1mM treatment with compounds V and VI. […] FIG. 15 is an in vitro polymerization assay with compounds I-VI, as well as Ac-TTAI-NH2 (SEQ ID NO: 6), a vehicle control and non-treated alpha-1-antitrypsin. There is an increase in polymerization after treatment with the low-molecular weight compounds.

ZAT [4] = target: T1, ZAT; test: Extracellular alpha-1-antitrypsin activity in media of ZAT inducible CHO cells; type: cell-based; design: expressed in transfected cells; host or cells: inducible serum-free CHO cells (tetracycline repressor control); conditions: FIG. 11, increasing treatment
Excerpt: An elastase inhibition assay was developed to measure the effects of a test compound on the inhibitory activity of secreted Z-AT. In one embodiment, to detect elastase activity, bovine elastin was labeled with BODIPY, which causes the fluorescence of the conjugate to be quenched. This non-fluorescent substrate was digested by elastase to yield highly fluorescent fragments. Alternatively, the non-fluorescent substrate may be digested by another protease to yield fluorescent fragments. The activity of α-1-antitrypsin was monitored by measuring a decrease in fluorescent signal, indicative of the elastase inhibitory activity of α-1-antitrypsin. A test compound was added to determine its effect on the elastase inhibitory activity of α-1-antitrypsin. In one embodiment, the resulting fluorescence was monitored in a Perkin Elmer Victor V plate reader using absorption and emission filters for fluorescein […].
Serum free CHO cell lines were developed, expressing M-AT, Z-AT (Glu342Lys) and the S mutation (Glu264Val), so that secreted alpha-1-antitrypsin activity could be measured directly from media without interference from bovine, alpha-1-antitrypsin introduced into the media from serum. Briefly, cDNA was isolated by PCR from first strand human liver cDNA using conventional cloning methods. […]

ZAT [5] = target: T1, ZAT; conditions: background studies; cited from earlier work; remark: listed apart in the source
[6] = 100 μM, FIG. 9 western blot, ZAT inducible CHO cells
[7] = 1 mM, FIG. 10 western blot, ZAT inducible CHO cells, compared with 100 μM

T1 sequence (P01009 25-418 E366K): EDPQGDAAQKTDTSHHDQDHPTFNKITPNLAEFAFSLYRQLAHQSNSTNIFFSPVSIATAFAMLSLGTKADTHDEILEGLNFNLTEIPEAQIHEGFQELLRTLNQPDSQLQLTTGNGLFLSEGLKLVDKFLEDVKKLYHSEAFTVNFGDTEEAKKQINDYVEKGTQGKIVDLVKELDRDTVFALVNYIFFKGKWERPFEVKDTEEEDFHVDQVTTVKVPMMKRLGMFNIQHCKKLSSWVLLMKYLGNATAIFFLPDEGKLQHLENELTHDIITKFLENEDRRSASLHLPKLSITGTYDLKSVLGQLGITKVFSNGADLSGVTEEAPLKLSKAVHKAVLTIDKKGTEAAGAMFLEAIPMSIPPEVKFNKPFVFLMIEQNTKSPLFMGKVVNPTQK
Chain of alpha-1-antitrypsin (P01009 25-418 E366K): as above

Molecule: O=C(O)CCCc1ccccc1 [4-phenylbutyric acid]
- secretion of Z-AT from cells (ZAT [1]): can increase secretion of Z-AT from cells

Molecule: CC(=O)NC(C(=O)NC(CCC(=O)O)C(=O)NC(C)C(=O)NC(C)C(N)=O)C(C)O (stereo not drawn) [Ac-TEAA-NH2, Ac-Thr-Glu-Ala-Ala-NH2] (Ac-TEAA-NH2; configuration not given here)
- alpha-1-antitrypsin polymerization (ZAT [2]): significantly less alpha-1-antitrypsin polymerization

Molecule: CC(=O)NC(C(=O)NC(CCC(=O)O)C(=O)NC(C)C(=O)NC(C)C(=O)NCC(N)=O)C(C)O (stereo not drawn) [Ac-TEAAG-NH2, Ac-Thr-Glu-Ala-Ala-Gly-NH2] (Ac-TEAAG-NH2; configuration not given here)
- alpha-1-antitrypsin polymerization (ZAT [2]): significantly less alpha-1-antitrypsin polymerization

Molecule: CC(=O)NC(C(=O)NC(CCC(=O)O)C(=O)NC(C(=O)NC(C)C(N)=O)C(C)C)C(C)O (stereo not drawn) [Ac-TEVA-NH2, Ac-Thr-Glu-Val-Ala-NH2] (Ac-TEVA-NH2; configuration not given here)
- inhibition of elastase activity by alpha-1-antitrypsin in the presence of peptide (alpha-1-antitrypsin; FIG. 2): inhibits elastase activity significantly, in fact to a level comparable to that of wild type alpha-1-antitrypsin
- inhibition of alpha-1-antitrypsin activity by the peptide (alpha-1-antitrypsin; at concentrations required to inhibit polymerization): does not inhibit alpha-1-antitrypsin activity
- alpha-1-antitrypsin polymerization (ZAT [2]): significantly less alpha-1-antitrypsin polymerization

Molecule: CC(=O)NC(C(=O)NC(CO)C(=O)NC(C)C(=O)NC(C)C(N)=O)C(C)O (stereo not drawn) [Ac-TSAA-NH2, Ac-Thr-Ser-Ala-Ala-NH2] (Ac-TSAA-NH2; configuration not given here)
- alpha-1-antitrypsin polymerization (ZAT [2]): significantly less alpha-1-antitrypsin polymerization

- intracellular levels of ZAT (ZAT [3]; [6]): lower levels of ZAT
- intracellular levels of ZAT (ZAT [3]; [7]): even lower
- intracellular levels of ZAT, normalized densitometry (ZAT [3]; 1 mM): Levels are lower
Molecule: COc1ccc(C(O)C(=O)NNC(=O)N[C@H](C(N)=O)C(C)O)cc1O (stereo partly drawn) [Compound VI]
- intracellular levels of ZAT (ZAT [3]; 1 mM, FIG. 13 western blot): significant reduction in ZAT levels intracellularly

- intracellular levels of ZAT (ZAT [3]; [6]): lower levels of ZAT
- intracellular levels of ZAT (ZAT [3]; [7]): even lower
- intracellular levels of ZAT, normalized densitometry (ZAT [3]; 1 mM): Levels are lower
Molecule: COc1ccc(C(O)C(=O)NNC(=O)N[C@@H](CO)C(N)=O)cc1O (stereo partly drawn) [Compound V]
- intracellular levels of ZAT (ZAT [3]; 1 mM, FIG. 13 western blot): significant reduction in ZAT levels intracellularly
- extracellular levels of ZAT and alpha-1-antitrypsin activity (ZAT [4]): higher activity levels with higher treatment

Molecule: O=C(O)CC(O)(CC(=O)O)C(=O)O [citrate]
- in vitro polymerization of Z-AT (ZAT [5]): block in vitro polymerization of Z-AT

Molecule: Ac-TTAI-NH2
- in vitro polymerization of Z-AT (ZAT [5]): block in vitro polymerization of Z-AT
